Values of other authors, collected in patent US20130296430A1, “COMPOSITIONS AND METHODS FOR TREATING AUTISM AND AUTISM SPECTRUM DISORDER” (priority 2012, published 2013).

Conditions: doses less than NAC; effects counter to those reported for NAC; Samstrand et al 1999; cited from earlier work

For `CC(=O)N[C@@H](CSSC[C@H](NC(C)=O)C(=O)O)C(=O)O` [oxidized form of NAC], the “bioactive dose relative to NAC” value is given as 10-100 fold.
